According to ChEMBL document CHEMBL1909046, “DrugMatrix in vitro pharmacology data”:

Columns and labels:
[1] = target: Beta-1 adrenergic receptor (Homo sapiens, UniProt P08588); assay: DRUGMATRIX: Adrenergic beta1 radioligand binding (ligand: [125I] Cyanopindolol); type: cell membranes, CHO-K1, Membrane; details: cho-k1; Not Active = under 50% inhibition at 10 µM
[2] = target: T1, Vasoactive intestinal polypeptide receptor 1 (Homo sapiens, UniProt P32241); type: cell membranes, Membrane; details: ht-29; further: in other assays of this panel Not Active means under 50% inhibition at 10 µM
T1 sequence (P32241 whole entry): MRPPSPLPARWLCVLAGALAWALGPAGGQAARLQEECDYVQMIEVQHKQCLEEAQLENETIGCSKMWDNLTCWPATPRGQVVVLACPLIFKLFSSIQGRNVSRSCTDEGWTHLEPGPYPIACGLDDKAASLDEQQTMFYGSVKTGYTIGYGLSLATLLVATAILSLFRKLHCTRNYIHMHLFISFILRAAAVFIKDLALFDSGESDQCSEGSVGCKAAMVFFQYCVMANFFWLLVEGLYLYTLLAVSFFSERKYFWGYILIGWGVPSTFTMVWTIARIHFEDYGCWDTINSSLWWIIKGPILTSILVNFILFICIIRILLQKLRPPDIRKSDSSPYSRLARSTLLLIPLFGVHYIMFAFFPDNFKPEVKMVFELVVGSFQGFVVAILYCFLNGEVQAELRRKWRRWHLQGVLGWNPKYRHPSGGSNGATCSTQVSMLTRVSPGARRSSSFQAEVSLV

[3] = DRUGMATRIX: Glutamate, AMPA radioligand binding (ligand: [3H] AMPA); type: cell membranes, Rattus norvegicus, Wistar, Cerebral cortex, Membrane; details: Not Active = under 50% inhibition at 10 µM
[4] = target: T2, C-X-C chemokine receptor type 1 (Homo sapiens, UniProt P25024); further: in other assays of this panel Not Active means under 50% inhibition at 10 µM
T2 sequence (P25024 whole entry): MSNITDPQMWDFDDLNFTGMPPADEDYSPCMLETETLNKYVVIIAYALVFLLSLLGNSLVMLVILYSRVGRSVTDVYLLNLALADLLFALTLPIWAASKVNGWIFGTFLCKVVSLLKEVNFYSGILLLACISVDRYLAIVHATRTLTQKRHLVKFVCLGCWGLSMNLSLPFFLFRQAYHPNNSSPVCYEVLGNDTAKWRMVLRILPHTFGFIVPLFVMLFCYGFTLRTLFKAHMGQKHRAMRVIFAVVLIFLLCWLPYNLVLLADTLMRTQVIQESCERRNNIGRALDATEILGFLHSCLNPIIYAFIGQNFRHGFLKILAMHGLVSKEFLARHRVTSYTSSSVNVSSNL

[5] = target: Cytochrome P450 3A4 (Homo sapiens, UniProt P08684); details: bti-tn-5b1-4; further: in other assays of this panel Not Active means under 50% inhibition at 10 µM
[6] = target: T3, Neuropeptide Y receptor type 1 (Homo sapiens, UniProt P25929); type: cell membranes, Membrane; details: sk-n-mc; further: in other assays of this panel Not Active means under 50% inhibition at 10 µM
T3 sequence (P25929 whole entry): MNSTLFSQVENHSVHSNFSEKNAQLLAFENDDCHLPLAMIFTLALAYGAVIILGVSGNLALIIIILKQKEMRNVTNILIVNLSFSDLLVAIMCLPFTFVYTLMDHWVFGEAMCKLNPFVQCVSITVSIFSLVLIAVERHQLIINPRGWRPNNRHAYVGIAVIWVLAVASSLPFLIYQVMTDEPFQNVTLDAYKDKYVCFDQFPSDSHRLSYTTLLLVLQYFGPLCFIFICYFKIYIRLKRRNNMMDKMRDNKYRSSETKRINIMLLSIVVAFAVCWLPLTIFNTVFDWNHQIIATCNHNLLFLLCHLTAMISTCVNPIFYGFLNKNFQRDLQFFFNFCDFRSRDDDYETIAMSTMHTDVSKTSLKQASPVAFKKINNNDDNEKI

[7] = target: T4, Amine oxidase [flavin-containing] A (Homo sapiens, UniProt P21397); assay: DRUGMATRIX: Monoamine Oxidase MAO-A enzyme inhibition (substrate: Kynuramine); set-up: species or system BTI-TN-5B1-4; details: bti-tn-5b1-4; Not Active = under 50% inhibition at 10 µM
T4 sequence (P21397 whole entry): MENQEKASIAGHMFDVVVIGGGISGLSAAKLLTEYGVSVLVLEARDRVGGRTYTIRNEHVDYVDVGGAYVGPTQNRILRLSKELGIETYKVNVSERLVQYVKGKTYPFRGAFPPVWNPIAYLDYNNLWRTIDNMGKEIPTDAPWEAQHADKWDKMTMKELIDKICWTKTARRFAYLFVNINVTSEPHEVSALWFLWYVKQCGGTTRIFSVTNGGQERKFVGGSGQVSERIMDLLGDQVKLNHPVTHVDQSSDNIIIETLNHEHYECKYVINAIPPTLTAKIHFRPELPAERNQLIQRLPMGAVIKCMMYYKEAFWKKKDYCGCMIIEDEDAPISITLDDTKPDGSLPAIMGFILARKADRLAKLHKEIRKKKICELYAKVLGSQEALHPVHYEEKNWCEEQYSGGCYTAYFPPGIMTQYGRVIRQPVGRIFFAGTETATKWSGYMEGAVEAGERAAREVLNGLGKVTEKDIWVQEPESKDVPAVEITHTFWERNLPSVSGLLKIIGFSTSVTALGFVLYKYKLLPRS

[8] = DRUGMATRIX: Interleukin IL-1 radioligand binding (ligand: [125I] interleukin 1beta); type: cell membranes, Membrane; details: nih3t3; Not Active = under 50% inhibition at 10 µM

Sequence of Beta-1 adrenergic receptor (P08588 whole entry): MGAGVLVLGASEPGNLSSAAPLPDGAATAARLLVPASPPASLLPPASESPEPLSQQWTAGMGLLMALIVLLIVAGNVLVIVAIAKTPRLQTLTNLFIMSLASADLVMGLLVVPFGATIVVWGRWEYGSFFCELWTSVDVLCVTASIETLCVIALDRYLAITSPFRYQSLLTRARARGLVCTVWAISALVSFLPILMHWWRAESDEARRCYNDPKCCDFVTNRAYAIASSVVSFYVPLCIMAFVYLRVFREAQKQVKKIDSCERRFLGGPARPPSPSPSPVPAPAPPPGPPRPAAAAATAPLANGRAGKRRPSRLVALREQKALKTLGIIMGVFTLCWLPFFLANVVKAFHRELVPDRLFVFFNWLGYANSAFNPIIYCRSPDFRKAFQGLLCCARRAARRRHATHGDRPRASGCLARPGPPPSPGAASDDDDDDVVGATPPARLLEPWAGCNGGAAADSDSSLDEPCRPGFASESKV
Sequence of Cytochrome P450 3A4 (P08684 whole entry): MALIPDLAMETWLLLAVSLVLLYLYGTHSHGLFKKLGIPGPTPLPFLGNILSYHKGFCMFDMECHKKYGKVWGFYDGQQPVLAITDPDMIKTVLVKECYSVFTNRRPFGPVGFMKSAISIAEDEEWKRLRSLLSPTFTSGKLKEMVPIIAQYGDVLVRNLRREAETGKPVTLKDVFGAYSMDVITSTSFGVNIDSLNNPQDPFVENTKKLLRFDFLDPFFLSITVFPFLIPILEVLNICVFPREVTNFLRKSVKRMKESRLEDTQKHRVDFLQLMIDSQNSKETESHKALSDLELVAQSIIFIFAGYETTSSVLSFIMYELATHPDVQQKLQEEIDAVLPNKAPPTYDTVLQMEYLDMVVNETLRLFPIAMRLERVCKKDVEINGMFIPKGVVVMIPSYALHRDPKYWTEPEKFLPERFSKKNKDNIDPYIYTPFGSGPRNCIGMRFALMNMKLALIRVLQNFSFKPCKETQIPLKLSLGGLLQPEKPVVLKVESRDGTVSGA

O=c1ncn2nc(Sc3ccc(F)cc3F)ccc2c1-c1c(Cl)cccc1Cl [NEFLAMAPIMOD]
Not Active: IC50 [1] | IC50 [2] | IC50 [3] | Ki [3] | IC50 [4] | IC50 [5] | Ki [5] | IC50 [6] | IC50 [7] | IC50 [8] | Ki [8]

C=CCC1(C(C)CCC)C(=O)NC(=O)NC1=O (configuration not stated) [SECOBARBITAL]
Not Active: IC50 [1] | IC50 [2] | IC50 [3] | Ki [3] | IC50 [4] | IC50 [5] | Ki [5] | IC50 [6] | IC50 [7] | IC50 [8] | Ki [8]

C[C@@H]1CN(c2c(F)c(N)c3c(=O)c(C(=O)O)cn(C4CC4)c3c2F)C[C@H](C)N1 [SPARFLOXACIN]
Not Active: IC50 [1] | IC50 [2] | IC50 [3] | Ki [3] | IC50 [4] | IC50 [5] | Ki [5] | IC50 [6] | IC50 [7] | IC50 [8] | Ki [8]

Cc1noc(NS(=O)(=O)c2ccc(N)cc2)c1C [SULFISOXAZOLE]
Not Active: IC50 [1] | IC50 [2] | IC50 [3] | Ki [3] | IC50 [4] | IC50 [5] | Ki [5] | IC50 [6] | IC50 [7] | IC50 [8] | Ki [8]

CSc1ccc(/C=C2/C(C)=C(CC(=O)O)c3cc(F)ccc32)cc1 [SULINDAC SULFIDE]
Not Active: IC50 [1] | IC50 [2] | IC50 [3] | Ki [3] | IC50 [4] | IC50 [5] | Ki [5] | IC50 [6] | IC50 [7] | IC50 [8] | Ki [8]

Nc1c2c(nc3ccccc13)CCCC2 [TACRINE]
Not Active: IC50 [1] | IC50 [2] | IC50 [3] | Ki [3] | IC50 [4] | IC50 [5] | Ki [5] | IC50 [6] | IC50 [7] | IC50 [8] | Ki [8]

Nc1nc2nc[nH]c2c(=S)[nH]1 [THIOGUANINE]
Not Active: IC50 [1] | IC50 [2] | IC50 [3] | Ki [3] | IC50 [4] | IC50 [5] | Ki [5] | IC50 [6] | IC50 [7] | IC50 [8] | Ki [8]

Cc1cccc(N(C)C(=S)Oc2ccc3ccccc3c2)c1 [TOLNAFTATE]
Not Active: IC50 [1] | IC50 [2] | IC50 [3] | Ki [3] | IC50 [4] | IC50 [5] | Ki [5] | IC50 [6] | IC50 [7] | IC50 [8] | Ki [8]

NC[C@H]1CC[C@H](C(=O)O)CC1 [TRANEXAMIC ACID]
Not Active: IC50 [1] | IC50 [2] | IC50 [3] | Ki [3] | IC50 [4] | IC50 [5] | Ki [5] | IC50 [6] | IC50 [7] | IC50 [8] | Ki [8]

CC1(C)O[C@@H]2C[C@H]3[C@@H]4CCC5=CC(=O)C=C[C@]5(C)[C@@]4(F)[C@@H](O)C[C@]3(C)[C@]2(C(=O)CO)O1 [TRIAMCINOLONE ACETONIDE]
Not Active: IC50 [1] | IC50 [2] | IC50 [3] | Ki [3] | IC50 [4] | IC50 [5] | Ki [5] | IC50 [6] | IC50 [7] | IC50 [8] | Ki [8]

NS(=O)(=O)c1cc2c(cc1Cl)NC(C(Cl)Cl)NS2(=O)=O (configuration not stated) [TRICHLORMETHIAZIDE]
Not Active: IC50 [1] | IC50 [2] | IC50 [3] | Ki [3] | IC50 [4] | IC50 [5] | Ki [5] | IC50 [6] | IC50 [7] | IC50 [8] | Ki [8]

Cc1c(C)c2c(c(C)c1O)CCC(C)(COc1ccc(CC3SC(=O)NC3=O)cc1)O2 (configuration not stated) [TROGLITAZONE]
Not Active: IC50 [1] | IC50 [2] | IC50 [3] | Ki [3] | IC50 [4] | IC50 [5] | Ki [5] | IC50 [6] | IC50 [7] | IC50 [8] | Ki [8]

N[C@@H]1[C@H]2CN(c3nc4c(cc3F)c(=O)c(C(=O)O)cn4-c3ccc(F)cc3F)C[C@@H]12 [TROVAFLOXACIN]
Not Active: IC50 [1] | IC50 [2] | IC50 [3] | Ki [3] | IC50 [4] | IC50 [5] | Ki [5] | IC50 [6] | IC50 [7] | IC50 [8] | Ki [8]

N#CC(C#N)=Cc1ccc(O)c(O)c1 [TYRPHOSTIN 23]
Not Active: IC50 [1] | IC50 [2] | IC50 [3] | Ki [3] | IC50 [4] | IC50 [5] | Ki [5] | IC50 [6] | IC50 [7] | IC50 [8] | Ki [8]

CC[C@]1(O)C[C@H]2CN(CCc3c([nH]c4ccccc34)[C@@](C(=O)OC)(c3cc4c(cc3OC)N(C=O)[C@H]3[C@@](O)(C(=O)OC)[C@H](OC(C)=O)[C@]5(CC)C=CCN6CC[C@]43[C@@H]65)C2)C1 [VINCRISTINE]
Not Active: IC50 [1] | IC50 [2] | IC50 [3] | Ki [3] | IC50 [4] | IC50 [5] | Ki [5] | IC50 [6] | IC50 [7] | IC50 [8] | Ki [8]

CCCOc1ccccc1-c1nc2nn[nH]c2c(=O)[nH]1 [ZAPRINAST]
Not Active: IC50 [1] | IC50 [2] | IC50 [3] | Ki [3] | IC50 [4] | IC50 [5] | Ki [5] | IC50 [6] | IC50 [7] | IC50 [8] | Ki [8]

SODIUM NITROPRUSSIDE
Not Active: IC50 [1] | Ki [1] | IC50 [2] | Ki [2] | IC50 [3] | Ki [3] | IC50 [4] | Ki [4] | IC50 [5] | Ki [5] | IC50 [6] | Ki [6] | IC50 [7] | Ki [7] | IC50 [8] | Ki [8]
